Assay results taken from patent US20090149533A1 (TransForm Pharmaceuticals, Inc., priority 2004, published 2009).
≈ marks a conversion by molar mass, not a printed value.

Key:
[1] = Solubility of fenofibrate in E463808-additive mixtures; type: physicochemical; settings: about 10% v/v additive; 25° C.
Procedure: Equilibrated samples were filtered using 0.2 micrometer PVDF syringe filters and diluted for assay. […] (Tween 85 is also known as polyoxyethylenesorbitan trioleate, Tween 80 is also known as polyoxyethylenesorbitan monooleate, Span 80 is also known as sorbitan monooleate, Span 85 is also known as sorbitan trioleate, and Cremophor EL is also known as polyoxyl castor oil.) Span 80, Span 85, and Tween 85 samples were analyzed using normal-phase HPLC. Cremophor EL, Tween 80, and replicates of Tween 85 samples were analyzed using UV measurements at 285 nm.

[2] = Equilibrium fenofibrate solubility in ethyl esters versus triglycerides; type: physicochemical; settings: fenofibrate solubility at 25 degrees C. in the vehicle given as label
[3] = in vivo; cited from earlier work
[4] = Stability and compatibility of fenofibrate and E463808 (gradient HPLC); type: physicochemical; settings: 80 or 200 mg/mL in E463808, sealed vial or gelcap, 4 deg C. to 60 deg C., up to 8 weeks

Compound	effect of additive on fenofibrate solubility in E463808 [1]	other results
polyoxyethylenesorbitan monooleate [Tween 80®]	Slight enhancement in fenofibrate solubility	
CCCCC/C=C\C/C=C\CCCCCCCC(=O)OCC(COC(=O)CCCCCCC/C=C\C/C=C\CCCCC)OC(=O)CCCCCCC/C=C\C/C=C\CCCCC [Trilinolein]		Solubility [2]: 61.2 mg/mL (≈ 69.6 mM)
CC(C)(Oc1ccc(C(=O)c2ccc(Cl)cc2)cc1)C(=O)O [fenofibric acid]		elimination half-life [3]: approximately twenty
CC(C)OC(=O)C(C)(C)Oc1ccc(C(=O)c2ccc(Cl)cc2)cc1 [Fenofibrate, 2-[4-(4-chlorobenzoyl)phenoxy]-2-methyl-propanoic acid 1-methylethyl ester]		degradation of fenofibrate [4]: no degradation was observed
polyoxyl castor oil [Cremophor® EL]	Slight enhancement in fenofibrate solubility	
polyoxyethylenesorbitan trioleate [Tween 85®]	Slight enhancement in fenofibrate solubility	
